The values that follow come from ChEMBL document CHEMBL3044745, “Synthesis and evaluation of biological and nonlinear optical properties of some novel 2,4-disubstituted [1,3]-thiazoles carrying 2-(aryloxymethyl)-phenyl moiety” (2013).

Holding throughout (type): functional
The subject of one experiment is Candida albicans. The experiment can be described thus: Antifungal activity against Candida albicans assessed as growth inhibition at 10 ug/disk. The conditions noted are these: read-out: IZ.
The next experiment deals with Staphylococcus aureus. The experiment can be described thus: Antibacterial activity against Staphylococcus aureus assessed as growth inhibition at 10 ug/disk. The conditions noted are these: read-out: IZ.
The test system of another experiment is Bacillus subtilis. The experiment in a line: Antibacterial activity against Bacillus subtilis assessed as growth inhibition at 10 ug/disk. The conditions noted are these: read-out: IZ.
In the next experiment the test system is Rattus norvegicus. The experiment in a line: Anti-inflammatory activity in Rattus norvegicus Wistar albino (rat) assessed as inhibition of carrageenan-induced paw edema at 10 mg/kg, po relative to untreated control.
Another experiment relates to Aspergillus niger. The experiment in a line: Antifungal activity against Aspergillus niger assessed as growth inhibition at 10 ug/disk. As to conditions: read-out: IZ.
In another experiment the test system is Escherichia coli. The experiment can be described thus: Antibacterial activity against Escherichia coli assessed as growth inhibition at 10 ug/disk. As to conditions: read-out: IZ.
In another experiment the test system is Pseudomonas aeruginosa. The experiment can be described thus: Antibacterial activity against Pseudomonas aeruginosa assessed as growth inhibition at 10 ug/disk. The conditions noted are these: read-out: IZ.

In the case of `Cc1ccccc1OCc1ccccc1-c1nc(CN2CCN(C(c3ccccc3)c3ccccc3)CC2)cs1`, the zone of inhibition at 10 µg/disc was 9 mm in the experiment with Candida albicans; 23 mm in the experiment with Staphylococcus aureus; 23 mm in the experiment with Bacillus subtilis; 8 mm with Aspergillus niger; 20 mm with Escherichia coli; 18 mm in the experiment with Pseudomonas aeruginosa. The inhibition in vivo (in general, the drop in the measured response relative to a control, in per cent) at 10 mg/kg with Rattus norvegicus worked out at 64%.

Consider `O=C(O)c1cn(C2CC2)c2cc(N3CCNCC3)c(F)cc2c1=O` [CIPROFLOXACIN], for which the zone of inhibition at 10 µg/disc in the experiment on Staphylococcus aureus amounted to 26 mm; in the experiment with Bacillus subtilis, 26 mm; in the experiment on Escherichia coli it was 28 mm; with Pseudomonas aeruginosa, 25 mm.

Regarding `Cc1cccc(OCc2ccccc2-c2nc(-c3ccc([N+](=O)[O-])cc3)cs2)c1`, the zone of inhibition at 10 µg/disc was determined as 9 mm in the experiment with Candida albicans; 8 mm in the experiment with Staphylococcus aureus; 12 mm with Bacillus subtilis; 8 mm with Aspergillus niger; 11 mm with Escherichia coli; 10 mm in the experiment on Pseudomonas aeruginosa. The inhibition in vivo at 10 mg/kg in the experiment with Rattus norvegicus was found to be 46.7%.

For the compound `Cc1cccc(OCc2ccccc2-c2nc(-c3cc(Cl)sc3S(N)(=O)=O)cs2)c1`, the zone of inhibition at 10 µg/disc in the experiment on Candida albicans stood at 19 mm; in the experiment on Staphylococcus aureus, 18 mm; with Bacillus subtilis it was 16 mm; in the experiment on Aspergillus niger, 18 mm; with Escherichia coli, 20 mm; in the experiment with Pseudomonas aeruginosa, 18 mm. In addition, the inhibition in vivo at 10 mg/kg with Rattus norvegicus was found to be 66.8%.

For `Cc1cccc(OCc2ccccc2-c2nc(CN3CCN(C(c4ccccc4)c4ccc(Cl)cc4)CC3)cs2)c1` (centres undefined), the zone of inhibition at 10 µg/disc in the experiment with Candida albicans is 20 mm; in the experiment on Staphylococcus aureus, 28 mm; in the experiment on Bacillus subtilis, 28 mm; in the experiment with Aspergillus niger it was 18 mm; in the experiment with Escherichia coli, 27 mm; in the experiment with Pseudomonas aeruginosa, 25 mm. The inhibition in vivo at 10 mg/kg with Rattus norvegicus amounted to 62.6%.

In the case of `Cc1cccc(OCc2ccccc2-c2nc(-c3ccc(O)c(C(N)=O)c3)cs2)c1`, the zone of inhibition at 10 µg/disc was 18 mm in the experiment on Candida albicans; 22 mm in the experiment with Staphylococcus aureus; 22 mm in the experiment on Bacillus subtilis; 11 mm with Aspergillus niger; 20 mm with Escherichia coli; 22 mm with Pseudomonas aeruginosa. The inhibition in vivo at 10 mg/kg in the experiment with Rattus norvegicus is 42.9%.

Take `Cc1cccc(OCc2ccccc2-c2nc(COc3ccc(Cl)cc3)cs2)c1`: the zone of inhibition at 10 µg/disc with Candida albicans turned out to be 22 mm; with Staphylococcus aureus, 24 mm; in the experiment on Bacillus subtilis, 22 mm; in the experiment on Aspergillus niger, 18 mm; in the experiment with Escherichia coli, 20 mm; in the experiment with Pseudomonas aeruginosa, 18 mm. For the same compound, the inhibition in vivo at 10 mg/kg with Rattus norvegicus was determined as 67.7%.

As for `O=C(O)Cc1ccccc1Nc1c(Cl)cccc1Cl` [DICLOFENAC SODIUM], the inhibition in vivo at 10 mg/kg with Rattus norvegicus was determined as 75.9%.

Take `Cc1ccccc1OCc1ccccc1-c1nc(-c2ccc(O)c(C(N)=O)c2)cs1`: the zone of inhibition at 10 µg/disc in the experiment on Candida albicans came out at 16 mm; in the experiment with Staphylococcus aureus it was 18 mm; in the experiment with Bacillus subtilis, 18 mm; in the experiment on Aspergillus niger, 18 mm; with Escherichia coli, 20 mm; in the experiment on Pseudomonas aeruginosa it was 21 mm. In addition, the inhibition in vivo at 10 mg/kg in the experiment on Rattus norvegicus was found to be 40.5%.

Take `Clc1ccc(OCc2ccccc2-c2nc(CN3CCN(C(c4ccccc4)c4ccc(Cl)cc4)CC3)cs2)cc1` (centres undefined): the zone of inhibition at 10 µg/disc in the experiment with Candida albicans turned out to be 28 mm; in the experiment with Staphylococcus aureus, 27 mm; in the experiment with Bacillus subtilis, 26 mm; with Aspergillus niger it was 25 mm; in the experiment on Escherichia coli, 28 mm; with Pseudomonas aeruginosa, 26 mm. Also, the inhibition in vivo at 10 mg/kg with Rattus norvegicus was found to be 76.4%.

Consider `Cc1ccccc1OCc1ccccc1-c1nc(-c2ccc([N+](=O)[O-])cc2)cs1`, for which the zone of inhibition at 10 µg/disc in the experiment with Candida albicans stood at 12 mm; with Staphylococcus aureus it was 10 mm; with Bacillus subtilis, 12 mm; in the experiment on Aspergillus niger, 14 mm; in the experiment on Escherichia coli it was 14 mm; in the experiment with Pseudomonas aeruginosa, 10 mm. The inhibition in vivo at 10 mg/kg in the experiment on Rattus norvegicus stood at 46.7%.

Regarding `Cc1ccc(OCc2ccccc2-c2nc(CN3CCN(C(c4ccccc4)c4ccc(Cl)cc4)CC3)cs2)cc1` (centres undefined), the zone of inhibition at 10 µg/disc is 20 mm with Candida albicans; 28 mm in the experiment with Staphylococcus aureus; 28 mm in the experiment on Bacillus subtilis; 19 mm with Aspergillus niger; 28 mm in the experiment with Escherichia coli; 24 mm with Pseudomonas aeruginosa. In the experiment on Rattus norvegicus, the inhibition in vivo at 10 mg/kg was 56.9%.

With `Cc1ccc(OCc2ccccc2-c2nc(-c3ccc(O)c(C(N)=O)c3)cs2)cc1`, the zone of inhibition at 10 µg/disc turned out to be 20 mm in the experiment with Candida albicans; 20 mm in the experiment with Staphylococcus aureus; 20 mm in the experiment with Bacillus subtilis; 18 mm in the experiment with Aspergillus niger; 19 mm in the experiment on Escherichia coli; 20 mm in the experiment with Pseudomonas aeruginosa. Further, the inhibition in vivo at 10 mg/kg with Rattus norvegicus was found to be 46.7%.

On to `Cc1ccccc1OCc1ccccc1-c1nc(-c2cc(Cl)sc2S(N)(=O)=O)cs1`, for which the zone of inhibition at 10 µg/disc in the experiment with Candida albicans was determined as 18 mm; with Staphylococcus aureus it was 22 mm; in the experiment on Bacillus subtilis it was 20 mm; with Aspergillus niger, 16 mm; with Escherichia coli, 20 mm; in the experiment on Pseudomonas aeruginosa, 22 mm. Moreover, the inhibition in vivo at 10 mg/kg in the experiment with Rattus norvegicus was found to be 70.1%.

In the case of `Clc1ccc(OCc2ccccc2-c2nc(-c3cccc(Br)c3)cs2)cc1`, the zone of inhibition at 10 µg/disc with Candida albicans stood at 20 mm; with Staphylococcus aureus, 22 mm; in the experiment on Bacillus subtilis it was 20 mm; with Aspergillus niger it was 18 mm; in the experiment on Escherichia coli, 22 mm; in the experiment on Pseudomonas aeruginosa, 18 mm. In the experiment with Rattus norvegicus, the inhibition in vivo at 10 mg/kg was 42.9%.

On to `Cc1ccccc1OCc1ccccc1-c1nc(COc2ccc(Cl)cc2)cs1`, for which the zone of inhibition at 10 µg/disc amounted to 20 mm in the experiment with Candida albicans; 20 mm in the experiment with Staphylococcus aureus; 18 mm in the experiment on Bacillus subtilis; 16 mm in the experiment on Aspergillus niger; 22 mm in the experiment with Escherichia coli; 20 mm in the experiment on Pseudomonas aeruginosa. In addition, the inhibition in vivo at 10 mg/kg in the experiment on Rattus norvegicus worked out at 65.1%.

Turning to `Cc1ccc(OCc2ccccc2-c2nc(COc3ccc(Cl)cc3)cs2)cc1`, the zone of inhibition at 10 µg/disc with Candida albicans came out at 20 mm; in the experiment with Staphylococcus aureus it was 22 mm; in the experiment with Bacillus subtilis it was 19 mm; in the experiment with Aspergillus niger, 18 mm; in the experiment on Escherichia coli, 24 mm; in the experiment with Pseudomonas aeruginosa, 17 mm. Also, the inhibition in vivo at 10 mg/kg in the experiment on Rattus norvegicus turned out to be 68.7%.

As to `Clc1ccc(OCc2csc(-c3ccccc3COc3ccc(Cl)cc3)n2)cc1`, the zone of inhibition at 10 µg/disc came out at 26 mm in the experiment on Candida albicans; 28 mm in the experiment on Staphylococcus aureus; 27 mm in the experiment with Bacillus subtilis; 24 mm in the experiment with Aspergillus niger; 26 mm in the experiment on Escherichia coli; 24 mm with Pseudomonas aeruginosa. The inhibition in vivo at 10 mg/kg in the experiment on Rattus norvegicus is 76.4%.

For `OC(Cn1cncn1)(Cn1cncn1)c1ccc(F)cc1F` [FLUCONAZOLE], the figures for the zone of inhibition at 10 µg/disc with Candida albicans and in the experiment on Aspergillus niger were 26 mm and 25 mm, respectively.
